Data reported in PubChem BioAssay (NCI).
Several values for one entry are separate records, joined by “and”; a condition that tells them apart may be missing. Equal values may be shown once.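 Following 48 hours of exposure in 96-well plates, responses at five concentrations were used to interpolate endpoints linearly. Abbreviation: GI50, concentration required for 50% inhibition of growth. At the TGI there is no net growth.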

Key:
Test in all cases: NCI anticancer screen, dose series, 48 h
OVCAR-3 ovarian = tested on: OVCAR-3 ovarian
MDA-N = tested on: MDA-N
UO-31 renal = tested on: UO-31 renal
SF-539 CNS = tested on: SF-539 CNS
NCI-H460 lung = tested on: NCI-H460 lung
KM12 colon = tested on: KM12 colon
CCRF-CEM leukemia = tested on: CCRF-CEM leukemia
MDA-MB-231 breast = tested on: MDA-MB-231 breast
COLO 205 colon = tested on: COLO 205 colon
ACHN renal = tested on: ACHN renal
UACC-62 melanoma = tested on: UACC-62 melanoma
MOLT-4 leukemia = tested on: MOLT-4 leukemia
RXF 393 renal = tested on: RXF 393 renal
HOP-62 NSCLC = tested on: HOP-62 NSCLC
BT-549 breast = tested on: BT-549 breast
SF-268 CNS = tested on: SF-268 CNS
A549 NSCLC = tested on: A549 NSCLC
IGROV1 ovarian = tested on: IGROV1 ovarian
HCT-15 colon = tested on: HCT-15 colon
NCI-H23 lung = tested on: NCI-H23 lung
EKVX NSCLC = tested on: EKVX NSCLC
DU-145 prostate = tested on: DU-145 prostate
HL-60(TB) leukemia = tested on: HL-60(TB) leukemia
HT29 colon = tested on: HT29 colon
SK-OV-3 ovarian = tested on: SK-OV-3 ovarian
K-562 leukemia = tested on: K-562 leukemia
A498 renal = tested on: A498 renal
SK-MEL-2 melanoma = tested on: SK-MEL-2 melanoma
RPMI-8226 leukemia = tested on: RPMI-8226 leukemia
CAKI-1 renal = tested on: CAKI-1 renal
LOX IMVI melanoma = tested on: LOX IMVI melanoma
HCC-2998 colon = tested on: HCC-2998 colon
NCI-H226 lung = tested on: NCI-H226 lung
UACC-257 melanoma = tested on: UACC-257 melanoma
OVCAR-5 ovarian = tested on: OVCAR-5 ovarian
HCT-116 colon = tested on: HCT-116 colon
M14 melanoma = tested on: M14 melanoma
SNB-75 CNS = tested on: SNB-75 CNS
TK-10 renal = tested on: TK-10 renal
OVCAR-8 ovarian = tested on: OVCAR-8 ovarian
T-47D breast = tested on: T-47D breast
PC-3 prostate = tested on: PC-3 prostate
NCI-H522 lung = tested on: NCI-H522 lung
SNB-19 CNS = tested on: SNB-19 CNS
SK-MEL-28 melanoma = tested on: SK-MEL-28 melanoma
SR leukemia = tested on: SR leukemia
SN12C renal = tested on: SN12C renal
MCF7 breast = tested on: MCF7 breast
U251 CNS = tested on: U251 CNS
786-0 renal = tested on: 786-0 renal
HOP-92 NSCLC = tested on: HOP-92 NSCLC
SW-620 colon = tested on: SW-620 colon
SK-MEL-5 melanoma = tested on: SK-MEL-5 melanoma
MDA-MB-435 = tested on: MDA-MB-435
HS 578T breast = tested on: HS 578T breast
SF-295 CNS = tested on: SF-295 CNS
NCI/ADR-RES ovarian = tested on: NCI/ADR-RES ovarian
OVCAR-4 ovarian = tested on: OVCAR-4 ovarian
MALME-3M melanoma = tested on: MALME-3M melanoma

## CN(C)CC/C=C1\c2ccccc2Sc2ccc(Cl)cc21
OVCAR-3 ovarian
  GI50: 3.99 µM
  TGI: 13.5 µM and 26.8 µM
MDA-N
  TGI: 26.1 µM
UO-31 renal
  GI50: 2.96 µM
  TGI: 15.6 µM and 21.5 µM
SF-539 CNS
  GI50: 3.61 µM
  TGI: 11.2 µM and 36.2 µM
NCI-H460 lung
  GI50: 2.02 µM
  TGI: 3.95 µM and 28.8 µM
KM12 colon
  GI50: 2.54 µM
  TGI: 6.08 µM and 37.9 µM
CCRF-CEM leukemia
  GI50: 3.36 µM
  TGI: 15.4 µM and 25.2 µM
MDA-MB-231 breast
  GI50: 2.12 µM
  TGI: 9.32 µM and 28.3 µM
COLO 205 colon
  GI50: 1.54 µM
ACHN renal
  GI50: 3.61 µM
  TGI: 14.4 µM and 29.6 µM
UACC-62 melanoma
  GI50: 1.51 µM
  TGI: 3.09 µM and 26.7 µM
MOLT-4 leukemia
  GI50: 3.44 µM
  TGI: 9.98 µM and 25.9 µM
RXF 393 renal
  GI50: 1.86 µM
  TGI: 5.59 µM and 28.3 µM
HOP-62 NSCLC
  GI50: 1.94 µM
  TGI: 5.44 µM and 28 µM
BT-549 breast
  GI50: 4.91 µM
  TGI: 17.4 µM and 29.2 µM
SF-268 CNS
  GI50: 3.78 µM
  TGI: 14.1 µM and 30.1 µM
A549 NSCLC
  GI50: 2.87 µM
  TGI: 11.4 µM and 28.9 µM
IGROV1 ovarian
  GI50: 3.24 µM
  TGI: 11.3 µM and 26.3 µM
HCT-15 colon
  GI50: 3.79 µM
  TGI: 14 µM and 30.6 µM
NCI-H23 lung
  GI50: 3.52 µM
  TGI: 15.7 µM and 31.3 µM
EKVX NSCLC
  GI50: 6.47 µM
  TGI: 22.3 µM and 22.8 µM
DU-145 prostate
  GI50: 6.38 µM
  TGI: 18.6 µM and 29.7 µM
HL-60(TB) leukemia
  GI50: 4.46 µM
  TGI: 13.7 µM and 27.7 µM
HT29 colon
  GI50: 1.98 µM
  TGI: 3.96 µM and 16.4 µM
SK-OV-3 ovarian
  GI50: 1.99 µM
  TGI: 5 µM and 30.7 µM
K-562 leukemia
  GI50: 2.43 µM
  TGI: 4.71 µM and 18.7 µM
A498 renal
  GI50: 3.02 µM
  TGI: 14.1 µM and 28 µM
SK-MEL-2 melanoma
  GI50: 1.95 µM
  TGI: 3.71 µM and 31.7 µM
RPMI-8226 leukemia
  GI50: 2.69 µM
  TGI: 9.19 µM and 17.2 µM
CAKI-1 renal
  GI50: 2.56 µM
  TGI: 11.4 µM and 21.4 µM
LOX IMVI melanoma
  GI50: 1.57 µM
HCC-2998 colon
  GI50: 1.68 µM
  TGI: 3.43 µM and 4.76 µM
NCI-H226 lung
  GI50: 2.45 µM
  TGI: 9.11 µM and 38 µM
UACC-257 melanoma
  GI50: 1.49 µM
  TGI: 3.11 µM and 20.6 µM
OVCAR-5 ovarian
  GI50: 4.61 µM
  TGI: 17.9 µM and 27.8 µM
HCT-116 colon
  GI50: 2.4 µM
  TGI: 6.13 µM and 24.4 µM
M14 melanoma
  GI50: 1.87 µM
  TGI: 3.58 µM and 11.4 µM
SNB-75 CNS
  GI50: 2.46 µM
  TGI: 7.61 µM and 25.2 µM
TK-10 renal
  GI50: 1.91 µM
  TGI: 3.95 µM and 28.3 µM
OVCAR-8 ovarian
  GI50: 1.99 µM
  TGI: 4.44 µM and 32.8 µM
T-47D breast
  GI50: 1.46 µM
PC-3 prostate
  GI50: 3.03 µM
  TGI: 12.5 µM and 26 µM
NCI-H522 lung
  GI50: 1.67 µM
  TGI: 3.23 µM and 29.1 µM
SNB-19 CNS
  GI50: 2.62 µM
  TGI: 10.6 µM and 29.9 µM
SK-MEL-28 melanoma
  GI50: 1.74 µM
  TGI: 3.11 µM and 20.2 µM
SR leukemia
  GI50: 3.29 µM
  TGI: 8.76 µM
SN12C renal
  GI50: 2.84 µM
  TGI: 13.7 µM and 29.9 µM
MCF7 breast
  GI50: 1.81 µM
  TGI: 3.37 µM and 30.3 µM
U251 CNS
  GI50: 1.92 µM
  TGI: 4.66 µM and 26.9 µM
786-0 renal
  GI50: 2.5 µM
  TGI: 6.88 µM and 25.6 µM
HOP-92 NSCLC
  GI50: 0.379 µM
  TGI: 3.39 µM and 18.7 µM
SW-620 colon
  GI50: 2.18 µM
  TGI: 5.4 µM and 35.4 µM
SK-MEL-5 melanoma
  GI50: 1.62 µM
  TGI: 3 µM and 28.6 µM
MDA-MB-435
  GI50: 1.77 µM
  TGI: 4.03 µM and 23.1 µM
HS 578T breast
  GI50: 2.99 µM
  TGI: 15.1 µM and 37 µM
SF-295 CNS
  GI50: 1.78 µM
  TGI: 4.09 µM and 29.7 µM
NCI/ADR-RES ovarian
  GI50: 2.42 µM
  TGI: 8.24 µM and 30.8 µM
OVCAR-4 ovarian
  GI50: 3.72 µM
  TGI: 13.9 µM and 28.5 µM
MALME-3M melanoma
  GI50: 1.71 µM
  TGI: 3.47 µM and 28 µM
